According to ChEMBL document CHEMBL6182861, “Structural modification of heptamethine indocyanine dyes with improved aqueous solubility and stability for photothermal therapy” (Eur J Med Chem, 2025):
Calls of active or inactive are those of the source. The rule behind the calls is not given here.

Columns and labels:
[1] = Drug uptake in human HepG2 cells assessed as increase in fluorescence intensity at 3.12 uM incubated for 4 hrs by CLSM; format: ADME, cell-based; conditions: hepg2, 4 h
4T1 [2] = assay: Induction of ROS generation in mouse 4T1 cells at 3.12 uM incubated for 4 hrs followed by exposure to laser irradiation of 808 nm for 2 mins by DCFH-DA probe based CLSM; format: functional, cell-based; conditions: time 242.0 min
[3] = Photothermal stability of compound at 60 degreeC at 20 uM exposed to laser irradiation of 808 nm for 2.5 mins; format: physicochemical
[4] = Photosensitizing property of compound assessed as generation of singlet-state oxygen by ESR spectrometry; format: functional
Mitochondrial membrane [5] = assay: Inhibition of mitochondrial membrane potential in human HepG2 cells at 3.12 uM preincubated for 4 hrs followed by exposure to laser irradiation of 808 nm for 2 mins and subsequent incubation for 20 hrs by flow cytometry; format: cell membranes; conditions: time 1442.0 min
HepG2 [6] = assay: Induction of apoptosis in human HepG2 cells at 3.12 uM incubated for 4 hrs followed by exposure to laser irradiation of 808 nm for 2 mins by Annexin V-FITC/PI staining based flow cytometry; format: functional, cell-based; conditions: time 242.0 min
Mitochondrial membrane [7] = assay: Inhibition of mitochondrial membrane potential in human HepG2 cells assessed as green fluorescence at 3.12 uM preincubated for 4 hrs followed by exposure to laser irradiation of 808 nm for 2 mins and subsequent incubation for 20 hrs by JC-1 dye based analysis; format: cell membranes; conditions: time 1442.0 min
4T1 [8] = assay: Induction of ROS generation in mouse 4T1 cells at 3.12 uM incubated for 4 hrs followed by exposure to laser irradiation of 808 nm for 2 mins by flow cytometry; format: functional, cell-based; conditions: time 242.0 min
Mitochondrial membrane [9] = assay: Inhibition of mitochondrial membrane potential in mouse 4T1 cells at 3.12 uM preincubated for 4 hrs followed by exposure to laser irradiation of 808 nm for 2 mins and subsequent incubation for 20 hrs by flow cytometry; format: cell membranes; conditions: time 1442.0 min
Mitochondrial membrane [10] = assay: Inhibition of mitochondrial membrane potential in human HepG2 cells at 3.12 uM incubated for 24 hrs by flow cytometry; format: cell membranes
Mitochondrial membrane [11] = assay: Inhibition of mitochondrial membrane potential in mouse 4T1 cells at 3.12 uM preincubated for 4 hrs followed by exposure to laser irradiation of 808 nm for 2 mins and subsequent incubation for 20 hrs by Rh123 probe based CLSM; format: cell membranes; conditions: time 1442.0 min
Mitochondrial membrane [12] = assay: Inhibition of mitochondrial membrane potential in mouse 4T1 cells assessed as green fluorescence at 3.12 uM preincubated for 4 hrs followed by exposure to laser irradiation of 808 nm for 2 mins and subsequent incubation for 20 hrs by JC-1 dye based analysis; format: cell membranes; conditions: time 1442.0 min
[13] = Photosensitizing property of compound assessed as generation of singlet-state oxygen at 10 uM exposed to laser irradiation of 808 nm for 2 mins by SOSG probe based analysis; format: functional
HepG2 [14] = assay: Induction of ROS generation in human HepG2 cells at 3.12 uM incubated for 4 hrs followed by exposure to laser irradiation of 808 nm for 2 mins by flow cytometry; format: functional, cell-based; conditions: time 242.0 min
[15] = Drug uptake in mouse 4T1 cells assessed as increase in fluorescence intensity at 3.12 uM incubated for 4 hrs by CLSM; format: ADME, cell-based; conditions: 4t1, 4 h
Mitochondrial membrane [16] = assay: Inhibition of mitochondrial membrane potential in mouse 4T1 cells at 3.12 uM incubated for 24 hrs by flow cytometry; format: cell membranes
Mitochondrial membrane [17] = assay: Inhibition of mitochondrial membrane potential in human HepG2 cells at 3.12 uM preincubated for 4 hrs followed by exposure to laser irradiation of 808 nm for 2 mins and subsequent incubation for 20 hrs by Rh123 probe based CLSM; format: cell membranes; conditions: time 1442.0 min
[18] = Drug uptake in human HepG2 cells assessed as increase in fluorescence intensity at 3.12 uM incubated for 4 hrs by flow cytometry; format: ADME, cell-based; conditions: hepg2, 4 h
[19] = Photothermal property of compound assessed as increase in photothermal conversion efficiency at 20 uM exposed to laser irradiation of 808 nm for 2 mins; format: functional
HepG2 [20] = assay: Induction of ROS generation in human HepG2 cells at 3.12 uM incubated for 4 hrs followed by exposure to laser irradiation of 808 nm for 2 mins by DCFH-DA probe based CLSM; format: functional, cell-based; conditions: time 242.0 min
[21] = Drug uptake in mouse 4T1 cells assessed as increase in fluorescence intensity at 3.12 uM incubated for 4 hrs by flow cytometry; format: ADME, cell-based; conditions: 4t1, 4 h
HepG2 [22] = assay: Cytotoxicity against human HepG2 cells under dark condition at 3.12 uM incubated for 24 hrs by MTT assay; format: functional, cell-based
Mitochondrial membrane [23] = assay: Inhibition of mitochondrial membrane potential in mouse 4T1 cells at 3.12 uM incubated for 24 hrs by Rh123 probe based CLSM; format: cell membranes
[24] = Aqueous solubility of compound by absorbance based assay; format: physicochemical; conditions: buffer
4T1 [25] = assay: Cytotoxicity against mouse 4T1 cells under dark condition at 3.12 uM incubated for 24 hrs by MTT assay; format: functional, cell-based
Mitochondrial membrane [26] = assay: Inhibition of mitochondrial membrane potential in human HepG2 cells at 3.12 uM incubated for 24 hrs by Rh123 probe based CLSM; format: cell membranes
4T1 [27] = assay: Induction of apoptosis in mouse 4T1 cells at 3.12 uM incubated for 4 hrs followed by exposure to laser irradiation of 808 nm for 2 mins by Annexin V-FITC/PI staining based flow cytometry; format: functional, cell-based; conditions: time 242.0 min
HepG2 [28] = assay: Photothermal cytotoxicity against human HepG2 cells up to 25 uM preincubated for 4 hrs followed by exposure to laser irradiation of 808 nm for 2 mins and subsequent incubation for 20 hrs by MTT assay; format: functional, cell-based; conditions: time 1442.0 min
4T1 [29] = assay: Photothermal cytotoxicity against mouse 4T1 cells up to 25 uM preincubated for 4 hrs followed by exposure to laser irradiation of 808 nm for 2 mins and subsequent incubation for 20 hrs by MTT assay; format: functional, cell-based

## COCCOCCOCCN1/C(=C/C=C/C(C#N)=C/C=C/C2=[N+](CCOCCOCCOC)c3ccccc3C2(C)C)C(C)(C)c2ccccc21.[I-]
[1]
  Drug uptake: Active
4T1 [2]
  Activity: Active
[3]
  Stability: Stable
[4]
  Activity: Active
Mitochondrial membrane [5]
  inhibition: Active; Significant Inhibition Was Observed
HepG2 [6]
  Activity: Active
Mitochondrial membrane [7]
  inhibition: Active
4T1 [8]
  Activity: Active
Mitochondrial membrane [9]
  inhibition: Active; Significant Inhibition Was Observed
Mitochondrial membrane [10]
  inhibition: Active; Certain Degree Of Inhibition Was Observed
Mitochondrial membrane [11]
  inhibition: Active; Significant Inhibition Was Observed
Mitochondrial membrane [12]
  inhibition: Active
[13]
  Activity: Active
HepG2 [14]
  Activity: Active
[15]
  Drug uptake: Active
Mitochondrial membrane [16]
  inhibition: Active; Certain Degree Of Inhibition Was Observed
Mitochondrial membrane [17]
  inhibition: Active; Significant Inhibition Was Observed
[18]
  Drug uptake: Active
[19]
  Activity: 0.7%
HepG2 [20]
  Activity: Active
[21]
  Drug uptake: Active
HepG2 [22]
  Activity: Active
Mitochondrial membrane [23]
  inhibition: Active; Certain Degree Of Inhibition Was Observed
[24]
  solubility: soluble
4T1 [25]
  Activity: Active
Mitochondrial membrane [26]
  inhibition: Active; Certain Degree Of Inhibition Was Observed
4T1 [27]
  Activity: Active

## CN1/C(=C/C=C/C=C/C=C/C2=[N+](C)c3ccccc3C2(C)C)C(C)(C)c2ccccc21.[I-]
[1]
  Drug uptake: Active
4T1 [2]
  Activity: Active
[3]
  Stability: Unstable
[4]
  Activity: Active
Mitochondrial membrane [5]
  inhibition: Active; Significant Inhibition Was Observed
HepG2 [6]
  Activity: Active
4T1 [8]
  Activity: Active
Mitochondrial membrane [9]
  inhibition: Active; Significant Inhibition Was Observed
HepG2 [28]
  Activity: inactive
Mitochondrial membrane [10]
  inhibition: Active; Certain Degree Of Inhibition Was Observed
Mitochondrial membrane [11]
  inhibition: Active; Significant Inhibition Was Observed
[13]
  Activity: Active
HepG2 [14]
  Activity: Active
[15]
  Drug uptake: Active
Mitochondrial membrane [16]
  inhibition: Active; Certain Degree Of Inhibition Was Observed
Mitochondrial membrane [17]
  inhibition: Active; Significant Inhibition Was Observed
[18]
  Drug uptake: Active
HepG2 [20]
  Activity: Active
4T1 [29]
  Activity: inactive
[21]
  Drug uptake: Active
Mitochondrial membrane [23]
  inhibition: Active; Certain Degree Of Inhibition Was Observed
[24]
  solubility: Insoluble
Mitochondrial membrane [26]
  inhibition: Active; Certain Degree Of Inhibition Was Observed
4T1 [27]
  Activity: Active

## COCCOCCOCCN1/C(=C/C=C/C=C/C=C/C2=[N+](CCOCCOCCOC)c3ccccc3C2(C)C)C(C)(C)c2ccccc21.[I-]
[1]
  Drug uptake: Active
4T1 [2]
  Activity: Active; Exhibited Highest Activity Among Tested Compounds
[3]
  Stability: Unstable
[4]
  Activity: Active
Mitochondrial membrane [5]
  inhibition: Active; Significant Inhibition Was Observed
HepG2 [6]
  Activity: Active
Mitochondrial membrane [7]
  inhibition: Active
4T1 [8]
  Activity: Active; Exhibited Highest Activity Among Tested Compounds
Mitochondrial membrane [9]
  inhibition: Active; Significant Inhibition Was Observed
HepG2 [28]
  Activity: Active; Compound Was Less Photo-Thermally Effective But Showed Stronger Cell-Killing Ability
Mitochondrial membrane [10]
  inhibition: Active; Certain Degree Of Inhibition Was Observed
Mitochondrial membrane [11]
  inhibition: Active; Significant Inhibition Was Observed
Mitochondrial membrane [12]
  inhibition: Active
[13]
  Activity: Active
HepG2 [14]
  Activity: Active; Exhibited Highest Activity Among Tested Compounds
[15]
  Drug uptake: Active
Mitochondrial membrane [16]
  inhibition: Active; Certain Degree Of Inhibition Was Observed
Mitochondrial membrane [17]
  inhibition: Active; Significant Inhibition Was Observed
[18]
  Drug uptake: Active
[19]
  Activity: 5.2%
HepG2 [20]
  Activity: Active; Exhibited Highest Activity Among Tested Compounds
4T1 [29]
  Activity: Active; Compound Was Less Photo-Thermally Effective But Showed Stronger Cell-Killing Ability
[21]
  Drug uptake: Active
Mitochondrial membrane [23]
  inhibition: Active; Certain Degree Of Inhibition Was Observed
Mitochondrial membrane [26]
  inhibition: Active; Certain Degree Of Inhibition Was Observed
4T1 [27]
  Activity: Active

## CC1(C)C(/C=C/C=C/C=C/C=C2\N(CCCCS(=O)(=O)O)c3ccc4ccccc4c3C2(C)C)=[N+](CCCCS(=O)(=O)[O-])c2ccc3ccccc3c21
[4]
  Activity: Active
[13]
  Activity: inactive

## CN1/C(=C/C=C/C(C#N)=C/C=C/C2=[N+](C)c3ccccc3C2(C)C)C(C)(C)c2ccccc21.[I-]
[1]
  Drug uptake: Active
4T1 [2]
  Activity: Active
[3]
  Stability: Stable
[4]
  Activity: Active
Mitochondrial membrane [5]
  inhibition: Active; Significant Inhibition Was Observed
HepG2 [6]
  Activity: Active
Mitochondrial membrane [7]
  inhibition: Active
4T1 [8]
  Activity: Active
Mitochondrial membrane [9]
  inhibition: Active; Significant Inhibition Was Observed
Mitochondrial membrane [10]
  inhibition: Active; Certain Degree Of Inhibition Was Observed
Mitochondrial membrane [11]
  inhibition: Active; Significant Inhibition Was Observed
Mitochondrial membrane [12]
  inhibition: Active
[13]
  Activity: Active
HepG2 [14]
  Activity: Active
[15]
  Drug uptake: Active
Mitochondrial membrane [16]
  inhibition: Active; Certain Degree Of Inhibition Was Observed
Mitochondrial membrane [17]
  inhibition: Active; Significant Inhibition Was Observed
[18]
  Drug uptake: Active
HepG2 [20]
  Activity: Active
[21]
  Drug uptake: Active
HepG2 [22]
  Activity: Active
Mitochondrial membrane [23]
  inhibition: Active; Certain Degree Of Inhibition Was Observed
4T1 [25]
  Activity: Active
Mitochondrial membrane [26]
  inhibition: Active; Certain Degree Of Inhibition Was Observed
4T1 [27]
  Activity: Active
